According to PubChem BioAssay (NCI):
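96-well plates; 48 h exposure; 5 concentrations. Endpoints by linear interpolation between flanking doses. Not reached: highest tested concentration assigned. Here, GI50 denotes the concentration required for 50% inhibition of growth. TGI: total growth inhibition.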

What was measured:
Assay in all cases: inhibition of tumour cell growth, NCI panel, 48 h
[1] = system: OVCAR-5 ovarian
[2] = system: SR leukemia
[3] = system: MDA-MB-231 breast
[4] = system: COLO 205 colon
[5] = system: NCI-H226 lung
[6] = system: OVCAR-8 ovarian
[7] = system: HCT-15 colon
[8] = system: OVCAR-3 ovarian
[9] = system: CAKI-1 renal
[10] = system: SK-MEL-2 melanoma
[11] = system: BT-549 breast
[12] = system: NCI/ADR-RES ovarian
[13] = system: ACHN renal
[14] = system: IGROV1 ovarian
[15] = system: 786-0 renal
[16] = system: MOLT-4 leukemia
[17] = system: SK-OV-3 ovarian
[18] = system: OVCAR-4 ovarian
[19] = system: U251 CNS
[20] = system: UACC-62 melanoma
[21] = system: T-47D breast
[22] = system: NCI-H23 lung
[23] = system: EKVX NSCLC
[24] = system: LOX IMVI melanoma
[25] = system: SF-295 CNS
[26] = system: CCRF-CEM leukemia
[27] = system: SK-MEL-5 melanoma
[28] = system: PC-3 prostate
[29] = system: MCF7 breast
[30] = system: SW-620 colon
[31] = system: HOP-62 NSCLC
[32] = system: K-562 leukemia
[33] = system: UACC-257 melanoma
[34] = system: MDA-MB-435
[35] = system: A498 renal
[36] = system: TK-10 renal
[37] = system: NCI-H460 lung
[38] = system: HT29 colon
[39] = system: SK-MEL-28 melanoma
[40] = system: NCI-H522 lung
[41] = system: SF-268 CNS
[42] = system: HCT-116 colon
[43] = system: HCC-2998 colon
[44] = system: SNB-19 CNS
[45] = system: SNB-75 CNS
[46] = system: KM12 colon
[47] = system: RPMI-8226 leukemia
[48] = system: SN12C renal
[49] = system: SF-539 CNS
[50] = system: UO-31 renal
[51] = system: RXF 393 renal
[52] = system: HL-60(TB) leukemia
[53] = system: HOP-92 NSCLC
[54] = system: M14 melanoma
[55] = system: DU-145 prostate
[56] = system: A549 NSCLC
[57] = system: HS 578T breast
[58] = system: MALME-3M melanoma

COCc1nc(N)nc(N2N=C(C)CC2(C)C)n1
TGI [1]: > 100 µM | TGI [2]: > 100 µM | TGI [3]: > 100 µM | TGI [4]: > 100 µM | TGI [5]: > 100 µM | TGI [6]: > 100 µM | TGI [7]: > 100 µM | TGI [8]: > 100 µM | TGI [9]: > 100 µM | TGI [10]: > 100 µM | TGI [11]: > 100 µM | TGI [12]: > 100 µM | TGI [13]: > 100 µM | TGI [14]: > 100 µM | TGI [15]: > 100 µM | TGI [16]: > 100 µM | TGI [17]: > 100 µM | TGI [18]: > 100 µM | TGI [19]: > 100 µM | TGI [20]: > 100 µM | TGI [21]: > 100 µM | TGI [22]: > 100 µM | TGI [23]: > 100 µM | TGI [24]: > 100 µM | TGI [25]: > 100 µM | TGI [26]: > 100 µM | TGI [27]: > 100 µM | TGI [28]: > 100 µM | TGI [29]: > 100 µM | TGI [30]: > 100 µM | TGI [31]: > 100 µM | TGI [32]: > 100 µM | TGI [33]: > 100 µM | TGI [34]: > 100 µM | TGI [35]: > 100 µM | TGI [36]: > 100 µM | TGI [37]: > 100 µM | TGI [38]: > 100 µM | TGI [39]: > 100 µM | TGI [40]: > 100 µM | TGI [41]: > 100 µM | TGI [42]: > 100 µM | TGI [43]: > 100 µM | TGI [44]: > 100 µM | TGI [45]: > 100 µM | TGI [46]: > 100 µM | TGI [47]: > 100 µM | TGI [48]: > 100 µM | TGI [49]: > 100 µM | TGI [50]: > 100 µM | TGI [51]: > 100 µM | TGI [52]: > 100 µM | TGI [53]: > 100 µM | TGI [54]: > 100 µM | TGI [55]: > 100 µM | TGI [56]: > 100 µM | TGI [57]: > 100 µM

COc1ccc(-c2cc(-c3ccc(C)cc3)nc3nc(=S)[nH]c(N)c23)cc1
GI50 [1]: 39.3 µM | TGI [1]: 96.9 µM | GI50 [2]: 24.6 µM | TGI [2]: 55.8 µM | GI50 [3]: 19.5 µM | TGI [3]: 48.3 µM | GI50 [4]: 26.8 µM | TGI [4]: 91.6 µM | GI50 [5]: 17.5 µM | TGI [5]: 41.7 µM | GI50 [6]: 21.5 µM | TGI [6]: 86.4 µM | GI50 [7]: 23.9 µM | TGI [7]: 64.4 µM | GI50 [8]: 13.6 µM | TGI [8]: 30.4 µM | GI50 [9]: 23.2 µM | TGI [9]: 54.2 µM | GI50 [10]: 19 µM | TGI [10]: 41 µM | GI50 [11]: 27.1 µM | TGI [11]: 60.4 µM | GI50 [12]: 32.2 µM | TGI [12]: > 100 µM | GI50 [13]: 18.8 µM | TGI [13]: 62.5 µM | GI50 [14]: 28.2 µM | TGI [14]: 78.4 µM | GI50 [15]: 22.4 µM | TGI [15]: 52.6 µM | GI50 [16]: 35.6 µM | TGI [16]: 72.3 µM | GI50 [17]: 40.4 µM | TGI [17]: > 100 µM | GI50 [18]: 74.3 µM | TGI [18]: > 100 µM | GI50 [19]: 15.2 µM | TGI [19]: 29.3 µM | GI50 [20]: 20.6 µM | TGI [20]: 45.6 µM | GI50 [21]: 14.8 µM | TGI [21]: 97.5 µM | GI50 [22]: 21.9 µM | TGI [22]: 60.2 µM | GI50 [23]: 25.8 µM | TGI [23]: 96 µM | GI50 [24]: 17.7 µM | TGI [24]: 34.5 µM | GI50 [25]: 15.9 µM | TGI [25]: 34.9 µM | GI50 [26]: 18.8 µM | TGI [26]: 64.8 µM | GI50 [27]: 14.1 µM | TGI [27]: 29.6 µM | GI50 [28]: 37.7 µM | TGI [28]: > 100 µM | GI50 [29]: 15.8 µM | TGI [29]: 69.4 µM | GI50 [30]: 17.9 µM | TGI [30]: 33.9 µM | GI50 [31]: 18.8 µM | TGI [31]: 40.6 µM | GI50 [32]: 15.1 µM | TGI [32]: 36.5 µM | GI50 [33]: 22.8 µM | TGI [33]: 45.3 µM | GI50 [34]: 17.6 µM | TGI [34]: 36.9 µM | GI50 [35]: 19.2 µM | TGI [35]: 39.4 µM | GI50 [36]: 22.8 µM | TGI [36]: 57.5 µM | GI50 [37]: 12 µM | TGI [37]: 27.5 µM | GI50 [38]: 19.1 µM | TGI [38]: > 100 µM | GI50 [39]: 40.6 µM | TGI [39]: > 100 µM | GI50 [58]: 26.7 µM | TGI [58]: 43.3 µM | GI50 [40]: 19.3 µM | TGI [40]: 39 µM | GI50 [41]: 17.5 µM | TGI [41]: 35.5 µM | GI50 [42]: 11.3 µM | TGI [42]: 26.6 µM | GI50 [43]: 23.6 µM | TGI [43]: 42.9 µM | GI50 [44]: 37.6 µM | TGI [44]: > 100 µM | GI50 [45]: 66.2 µM | TGI [45]: > 100 µM | GI50 [46]: 16.2 µM | TGI [46]: 36 µM | GI50 [47]: 18.4 µM | TGI [47]: 44.4 µM | GI50 [48]: 20.5 µM | TGI [48]: 48.6 µM | GI50 [49]: 19.2 µM | TGI [49]: 38.9 µM | GI50 [50]: 19.2 µM | TGI [50]: 48 µM | GI50 [51]: 20.5 µM | TGI [51]: 44.5 µM | GI50 [53]: 15.5 µM | TGI [53]: 75.5 µM | GI50 [54]: 19.1 µM | TGI [54]: 37.4 µM | GI50 [55]: 26.3 µM | TGI [55]: 75.5 µM | GI50 [56]: 24.3 µM | TGI [56]: > 100 µM | GI50 [57]: 17.9 µM | TGI [57]: 46.9 µM
